ChEMBL document CHEMBL1201862, “PubChem BioAssay data set” (2004)
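Each compound was tested at five concentrations against cells in 96-well plates for 48 hours. Here, GI50 denotes the concentration required for 50% inhibition of growth.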 Active and inactive are the calls of the source. No stated cut-off is given here; in the data, active = GI50 up to about 1.1 µM and inactive = higher.

Experiments:
Test in all cases: NCI-60 cell line screen, 48 h
SF-539 = tested on: SF-539
CAKI-1 = tested on: CAKI-1
RPMI-8226 = tested on: RPMI-8226
M14 = tested on: M14
KM12 = tested on: KM12
HCC 2998 = tested on: HCC 2998
SR = tested on: SR
MDA-MB-435 = tested on: MDA-MB-435
SK-MEL-28 = tested on: SK-MEL-28
U-251 = tested on: U-251
OVCAR-3 = tested on: OVCAR-3
Malme-3M = tested on: Malme-3M
T47D = tested on: T47D
OVCAR-5 = tested on: OVCAR-5
COLO 205 = tested on: COLO 205
HCT-116 = tested on: HCT-116
OVCAR-4 = tested on: OVCAR-4
TK-10 = tested on: TK-10
LOX IMVI = tested on: LOX IMVI
MCF7 = tested on: MCF7

Compound	GI50 (SF-539)	GI50 (CAKI-1)	GI50 (RPMI-8226)	GI50 (M14)	GI50 (KM12)	GI50 (HCC 2998)	GI50 (SR)	GI50 (MDA-MB-435)	GI50 (SK-MEL-28)	GI50 (U-251)	GI50 (OVCAR-3)	GI50 (Malme-3M)	GI50 (T47D)	GI50 (OVCAR-5)	GI50 (COLO 205)	GI50 (HCT-116)	GI50 (OVCAR-4)	GI50 (TK-10)	GI50 (LOX IMVI)	GI50 (MCF7)
CC(=O)[C@]1(C)[C@H](C)O[C@](C)(CO)[C@H]1O[Si](C)(C)c1ccccc1	> 100 µM (inactive)	17.9 µM (inactive)	35.2 µM (inactive)	83 µM (inactive)	47.6 µM (inactive)	31.5 µM (inactive)	31.8 µM (inactive)	50.1 µM (inactive)	87.1 µM (inactive)	> 100 µM (inactive)	55 µM (inactive)	15.4 µM (inactive)	17.8 µM (inactive)	> 100 µM (inactive)	56.6 µM (inactive)	38.4 µM (inactive)	30.4 µM (inactive)	82.4 µM (inactive)	20.4 µM (inactive)	31.8 µM (inactive)
C=CC[C@H]1[C@H](O[Si](C)(C)C(C)(C)C)C=CC(=O)[C@@H]1CC(=O)OCC	17.1 µM (inactive)	12.4 µM (inactive)	2.31 µM (inactive)	12.7 µM (inactive)	13.4 µM (inactive)	12.9 µM (inactive)	15 µM (inactive)	13.4 µM (inactive)	17.9 µM (inactive)	14.6 µM (inactive)	13.1 µM (inactive)	12.7 µM (inactive)	6.04 µM (inactive)	14.1 µM (inactive)	15.3 µM (inactive)	11.4 µM (inactive)	11.8 µM (inactive)	14.8 µM (inactive)	17.5 µM (inactive)	11.5 µM (inactive)
O=C1N(c2ccccc2)C(=S)/C(=C/c2ccc(Cl)cc2)N1c1ccc(Cl)cc1	21.1 µM (inactive)	> 100 µM (inactive)	18.3 µM (inactive)	61.9 µM (inactive)	52 µM (inactive)	> 100 µM (inactive)	0.571 µM (active)	35.6 µM (inactive)	34.8 µM (inactive)	28.1 µM (inactive)	35.2 µM (inactive)	20.6 µM (inactive)	63.8 µM (inactive)	78.3 µM (inactive)	27.5 µM (inactive)	20 µM (inactive)	28.2 µM (inactive)	26.7 µM (inactive)	22.2 µM (inactive)	81.1 µM (inactive)
N#Cc1nc(-c2ccccn2)c(-c2ccccn2)nc1C#N	4.19 µM (inactive)	2.04 µM (inactive)	2.83 µM (inactive)	1.59 µM (inactive)	2.52 µM (inactive)	3.66 µM (inactive)	1.82 µM (inactive)	2.7 µM (inactive)	3.96 µM (inactive)	2.32 µM (inactive)	3.79 µM (inactive)	1.45 µM (inactive)	1.69 µM (inactive)	3.32 µM (inactive)	1.97 µM (inactive)	0.624 µM (active)	1.79 µM (inactive)	1.82 µM (inactive)	1.03 µM (active)	1.22 µM (inactive)
Nc1nc(Cl)c(N)c(NCC2(CO)CC(OCc3ccccc3)C2)n1 (stereo not given)	> 100 µM (inactive)	> 100 µM (inactive)	> 100 µM (inactive)	> 100 µM (inactive)	> 100 µM (inactive)	82 µM (inactive)	6.5 µM (inactive)	> 100 µM (inactive)	> 100 µM (inactive)	> 100 µM (inactive)	> 100 µM (inactive)	> 100 µM (inactive)	23.7 µM (inactive)	> 100 µM (inactive)	> 100 µM (inactive)	44.8 µM (inactive)	> 100 µM (inactive)	44 µM (inactive)	9.35 µM (inactive)	11.3 µM (inactive)
O=c1[nH]nc(Cc2ccccc2)n1C1CC1	> 100 µM (inactive)	> 100 µM (inactive)	> 100 µM (inactive)	> 100 µM (inactive)	> 100 µM (inactive)	> 100 µM (inactive)	> 100 µM (inactive)	> 100 µM (inactive)	> 100 µM (inactive)	> 100 µM (inactive)	> 100 µM (inactive)	> 100 µM (inactive)	> 100 µM (inactive)	> 100 µM (inactive)	> 100 µM (inactive)	> 100 µM (inactive)	> 100 µM (inactive)	> 100 µM (inactive)	> 100 µM (inactive)	> 100 µM (inactive)
O=C(O)c1cc(-c2ccc3c(O)c(O)ccc3c2)ccc1O	> 75 µM (inactive)	4.34 µM (inactive)	15.9 µM (inactive)	20.7 µM (inactive)	47.4 µM (inactive)	> 75 µM (inactive)	18.1 µM (inactive)	21.7 µM (inactive)	> 75 µM (inactive)	15 µM (inactive)	> 75 µM (inactive)	> 75 µM (inactive)	> 75 µM (inactive)	12.6 µM (inactive)	24.9 µM (inactive)	15.8 µM (inactive)	12.9 µM (inactive)	> 75 µM (inactive)	14.1 µM (inactive)	13.4 µM (inactive)
